The values that follow come from patent US11980209B2, “Consumables” (GIVAUDAN SA, priority 2007, dated 2024).

Assay [1] has as its system perceived sweet taste (sweet sensitive panelists). Kind of assay: Ranking test with R-index, isointensity of 15 and 20 ppm HDG in water (Example 1d). It counts as in vivo, human. To be noted: for R-index: critical values 37.26-62.74%. As for the experimental part: All examples were performed with sweet sensitive panelists able to detect at least 0.5% of sucrose or less, unless stated otherwise. The concentration detectable by the average consumer will be higher. The results were obtained using 20 panelists in two replications.
The sucrose concentration that tastes isointense in sweetness to HDG was determined using samples of 15 ppm and 20 ppm, each of which was directly compared to a sucrose sample (sucrose solutions of 0.5%, 1%, 1.5% and 2% concentration). Fifteen milliliters of each blinded sample was presented, at room temperature, in random order to 20 sweet sensitive panelists. In two replications (over 1 session), panelists were asked to rank the solutions, from least sweet to most sweet. The data was subjected to an R-index analysis.

In assay [2] the test system is perceived sweet taste (panel). Put plainly: Small panel ranking of 5-20 ppm HDG in water (Example 1d). It counts as in vivo, human. The note with it: for Rank and taste: rank from least sweet to most sweet. As for the experimental part: Further three small panel testings were performed. HDG samples were prepared in concentrations of 5 ppm, 10 ppm, 15 ppm, and 20 ppm in water. All the samples were coded (presented blind) and given to the panel in random order. The panel was also presented with sucrose solutions for comparison. The panel was asked to taste each sample and rank the samples from the least sweet to most sweet.

For assay [3], the system named is perceived sweet taste (sweet sensitive panelists). Kind of assay: Ranking test with R-index, isointensity of 20 ppm HDG in 7% sucrose (Example 2b). It counts as in vivo, human. To be noted: for R-index: critical values 37.11-62.89%. An excerpt:
Panels consisted of 20 sweet sensitive subjects and samples were presented in 2 replications over 1 session. Panelists were presented with 7%, 8%, 9% and 10% sucrose solutions in water and a fifth sample of 20 ppm HDG in 7% sucrose in random order. Subjects were asked to rank the samples from low to high with respect to perceived sweet taste.

Assay [4] relates to perceived sweetness (sweet sensitive panelists). Kind of assay: Ranking test with R-index, sweetness enhancement by 10 ppm HDG in 7% sucrose (Example 12). The note with it: for R-index: critical value 37.1 to 62.9%. The format is in vivo, human. As for the experimental part: The degree of sweetness enhancement of HDG was tested by determining the isointensity of the HDG-enhanced samples in comparison to sucrose samples. The samples contained 10 ppm HDG in 7% sucrose (HDG-10), and various sucrose solutions of different concentration in water (7%, 8%, 9%, and 10%).
15 ml of each sample was presented at room temperature and in random order to 20 sweet sensitive panelists. In two replications over 1 session, panelists were asked to compare and rank the samples from least sweet to most sweet. The critical value indicates the range wherein the difference of two samples is non-significant.

Assay [5] relates to perceived sweetness (panelists). Put plainly: Sweetness of HDG in a cola beverage (Example 14). It counts as in vivo, human. The note with it: 20 ppm HDG in cola beverage sweetened with 7% sucrose. An excerpt: 20 ppm of HDG in a cola beverage sweetened with 7% sucrose was compared to control samples (cola without HDG and sweetened with 7 or 9% sucrose) by 9 panelists.
Panelists were instructed to taste and compare the samples in their sweetness intensity and profile.

The test system of assay [6] is perceived sweet taste (sweet sensitive panelists). Kind of assay: Ranking test of 2 ppm NHDC in water (Example 7). The format is in vivo, human.
The next assay relates to sucrose sweetness. The note with it: NHDC at its sweetness detection threshold; Kroeze et al., Chem. Senses 2000; cited from earlier work.
Assay [7] concerns perceived sweetness (sweet sensitive panelists). Put plainly: Determined isointensities to sucrose solutions of the optional enhancers. The format is in vivo, human. As for the experimental part: The sweetness detection threshold for trilobatin, HDG and optional enhancers were determined by the applicant.
The sweetness detection threshold varies somewhat in different individuals. For example, some individuals are able to detect the sweetness of sucrose in a very low concentration of 0.4%, others need at least 0.7%, or at least 1% or even more. All examples were performed with sweet sensitive panelists able to detect at least 0.5% of sucrose or less. The concentration detectable by the average consumer will therefore be higher.

The test system is the same in assay [8]. Kind of assay: Sweetness rating on generalized labeled magnitude scale (Example 6). The format is in vivo, human. To be noted: 1% sucrose in water, test run 3. An excerpt:
Further, panelists were asked to rate each presented sample for sweetness using the generalized labeled magnitude scale (0=no sweetness; […] of any kind). The rating data was compared using the paired t-test.

Where [9] appears, read: 10 ppm HDG in 7% sucrose vs 7% sucrose.
[10] abbreviates: 10 ppm HDG in 7% sucrose vs 8% sucrose.
The mark [11] stands for this setting: 10 ppm HDG in 7% sucrose vs 9% sucrose.
[12] abbreviates: 10 ppm HDG in 7% sucrose vs 10% sucrose.

Take `COc1ccc(CCC(=O)c2c(O)cc(O[C@@H]3O[C@H](CO)[C@@H](O)[C@H](O)[C@H]3O)cc2O)cc1O` [HDG, 1-[4-(-D-glucopyranosyloxy)-2,6-dihydroxyphenyl]-3-(3-hydroxy-4-methoxyphenyl)-1-propanone]: the R-index in [1] (15 ppm HDG in water vs 0.5% sucrose) was 85%; in assay [1] (15 ppm HDG in water vs 1.0% sucrose), 31%; in assay [1] (15 ppm HDG in water vs 1.5% sucrose), 10%; in [1] (15 ppm HDG in water vs 2.0% sucrose), 1%; in assay [1] (20 ppm HDG in water vs 0.5% sucrose) it was 92%; in [1] (20 ppm HDG in water vs 1.0% sucrose), 51%. Besides, the R-index is given as 33% in [1] (20 ppm HDG in water vs 1.5% sucrose); 4% in assay [1] (20 ppm HDG in water vs 2.0% sucrose); 94.8% in assay [3] (20 ppm HDG in 7% sucrose vs 7% sucrose); 62.6% in assay [3] (20 ppm HDG in 7% sucrose vs 8% sucrose); 46.0% in assay [3] (20 ppm HDG in 7% sucrose vs 9% sucrose); 6.8% in assay [3] (20 ppm HDG in 7% sucrose vs 10% sucrose). Further, the R-index in assay [4] (setting [9]) is listed as 75.2%; in assay [4] (setting [10]), 37.5%; in [4] (setting [11]), 10.7%; in [4] (setting [12]), 0.6%. In addition, the “sample sweetness (HDG, 15 ppm)” value in assay [1] (15 ppm in water vs 0.5% sucrose solution) is on record as “sweeter”; in assay [1] (15 ppm in water vs 1.0% sucrose solution), “less sweet”; in assay [1] (15 ppm in water vs 1.5% sucrose solution), “less sweet”; in [1] (15 ppm in water vs 2.0% sucrose solution), “less sweet”. Also, the “sample sweetness (HDG, 20 ppm)” value in assay [1] (20 ppm in water vs 0.5% sucrose solution) is listed as “Sweeter”; in assay [1] (20 ppm in water vs 1.0% sucrose solution), “Isosweet”; in assay [1] (20 ppm in water vs 1.5% sucrose solution), “Less sweet”; in assay [1] (20 ppm in water vs 2.0% sucrose solution), “Less sweet”. The isointensity to sucrose in [2] (5 ppm HDG in water) was 0% sucrose (water); in assay [2] (20 ppm HDG in water) it was 1 % sucrose; in assay [4] (10 ppm HDG in 7% sucrose), 8 % sucrose. Further, the Rank and taste in [2] (5 ppm HDG in water) was 1 - not sweet; in assay [2] (10 ppm HDG in water), 2 - very slightly sweet; in [2] (15 ppm HDG in water), 3 - slightly sweet; in assay [2] (20 ppm HDG in water), 4 - sweet. In addition, in assay [2] (in water), the “sweetness threshold of HDG detected by sweet sensitive individuals” value is listed as “about 10 ppm”. In addition, the “added sucrose sweetness intensity” value in assay [3] (20 ppm HDG in 7% sucrose) was 1.5-2 ° Brix; in assay [4] (10 ppm HDG in 7% sucrose) it was “about 1 ° Brix”. In addition, the “sample sweetness (7% sucrose + 20 ppm HDG)” value in assay [3] (vs 7% sucrose solution) was “Sweeter”; in assay [3] (vs 8% sucrose solution), “Isosweet”; in [3] (vs 9% sucrose solution), “Isosweet”; in assay [3] (vs 10% sucrose solution) it was “Less sweet”. In [4] (10 ppm HDG in 7% sucrose), the “expected isointensity to sucrose assuming a merely additive effect” value worked out at 7.5%. Moreover, the “sweetness HDG sample” value in assay [4] (setting [9]) is listed as “sweeter”; in [4] (setting [10]) it was “isosweet”; in [4] (setting [11]) it was “less”; in assay [4] (setting [12]), “less”. Besides, the “sweetness compared to 9% sucrose cola control” value in assay [5] is given as “not as sweet”. Besides, the “sweetness compared to 7% sucrose cola control” value in assay [5] (all 9 panelists) was “significantly sweeter”. The taste profile entry in assay [5] (similar to the sucrose controls in sweetness onset and duration) is “non-lingering”.

In assay [6] (2 ppm NHDC in water), `COc1ccc(CCC(=O)c2c(O)cc(O[C@@H]3O[C@H](CO)[C@@H](O)[C@H](O)[C@H]3O[C@@H]3O[C@@H](C)[C@H](O)[C@@H](O)[C@H]3O)cc2O)cc1O` [NHDC, Neohesperidin dihydrochalcone] displayed an isointensity to sucrose of 0.5 % sucrose. Besides, the values for the NHDC sample sweetness result in [6] (2 ppm NHDC in water vs 0.5% sucrose solution) and in [6] (2 ppm NHDC in water vs 1% sucrose solution) were “isosweet” and “less sweet”, respectively. Further, the R-index in assay [6] (2 ppm NHDC in water vs 1% sucrose, critical values 35.39-64.61%) amounted to 5%. Further, the “enhancement of sucrose sweetness” value in the assay with sucrose sweetness is given as “does not enhance sucrose sweetness”.

`C[C@@H]1O[C@@H](O[C@H]2[C@H](Oc3cc(O)c(C(=O)CCc4ccc(O)cc4)c(O)c3)O[C@H](CO)[C@@H](O)[C@@H]2O)[C@H](O)[C@H](O)[C@H]1O` [naringin dihydrochalcone, 1-[4-[[2-O-(6-Deoxy-alpha-L-mannopyranosyl)-beta-D-glucopyranosyl]oxy]-2,6-dihydroxyphenyl]-3-(4-hydroxyphenyl)-1-propanone]: the isointensity to sucrose in assay [7] (45 ppm naringin dihydrochalcone) stood at 0.5 % sucrose; in assay [7] (60 ppm naringin dihydrochalcone) it was 1.25 % sucrose.

Regarding `C=C1C[C@@]23CC[C@H]4[C@@](C)(CCC[C@@]4(C)C(=O)O[C@@H]4O[C@H](CO)[C@@H](O)[C@H](O)[C@H]4O)[C@@H]2CC[C@]1(O[C@@H]1O[C@H](CO)[C@@H](O)[C@H](O[C@@H]2O[C@H](CO)[C@@H](O)[C@H](O)[C@H]2O)[C@H]1O[C@@H]1O[C@H](CO)[C@@H](O)[C@H](O)[C@H]1O)C3` [rebaudioside A, Rebaudioside A], the isointensity to sucrose in assay [7] (20 ppm rebaudioside A) came to 0.75 % sucrose.

On to `C=C1C[C@@]23CC[C@H]4[C@@](C)(CCC[C@@]4(C)C(=O)O[C@@H]4O[C@H](CO)[C@@H](O)[C@H](O)[C@H]4O)[C@@H]2CC[C@]1(O[C@@H]1O[C@H](CO)[C@@H](O)[C@H](O)[C@H]1O[C@@H]1O[C@H](CO)[C@@H](O)[C@H](O)[C@H]1O)C3` [stevioside, Stevioside], for which the isointensity to sucrose in assay [7] (30 ppm stevioside) is listed as 0.5 % sucrose; in assay [7] (40 ppm stevioside) it was 0.75 % sucrose.

Take `OC[C@H]1O[C@@](CO)(O[C@H]2O[C@H](CO)[C@@H](O)[C@H](O)[C@H]2O)[C@@H](O)[C@@H]1O` [sucrose, alpha-D-glucopyranosyl-(1→2)-beta-D-fructofuranose]: the “sweetness rating, generalized labeled magnitude scale (0=no sweetness; 10=strongest imaginable sensation)” value in [8] is 0.72 ± 0.06.
